Laboratory results reported in US20250144126A1, “APPLICATION OF 5'-MONOPHOSPHATE NUCLEOTIDE AND MIXTURE THEREOF IN PREPARATION OF DRUG OR FOOD FOR IMPROVING MITOCHONDRIAL FUNCTION” (priority 2021, published 2025).
Entries after “also recorded” stand apart in the source; their conditions may differ.

System: H2O2-induced senescent mouse embryonic fibroblasts NIH/3T3
Experiment: Seahorse xFe96 mitochondria stress detection experiment in H2O2-induced senescent cells
Type: cell-based
Conditions: 24 h incubation after 200 μmol/L H2O2 for 4 h; for mitochondrial basal respiration / mitochondrial oxygen consumption rate (OCR): vs blank and model control; for mitochondrial ATP production capability / mitochondrial maximum respiratory value / mitochondrial respiratory reserve: vs model control, P<0.05
Protocol: In this example, concentrations of the 5′-adenosine monophosphate and the 5′-disodium uridine obtained in Example 1 were 100 μmol/L and 200 μmol/L respectively, and were recorded as AMP 100 group and UMP 200 group, respectively. […] Model control group was a senescence cell model group intervened by hydrogen peroxide. Blank control group was a group free of mixture of 5′-adenosine monophosphate, 5′-disodium uridine and 5′-monophosphate nucleotide and without hydrogen peroxide intervention.
The cells used in the example were mouse embryonic fibroblasts NIH/3T3, which were purchased from Cell Bank of Chinese Academy of Sciences.
The cells were cultured in a DMEM high-sugar medium containing 1% penicillin/streptomycin and 10% fetal bovine serum in an incubator with 5% of CO2 at 37° C. under saturated humidity conditions. The establishment of the senescence cell model was as follows: After the cells grew to the wall of a culture vessel, different concentrations of hydrogen peroxide were used for intervention, where the concentrations of hydrogen peroxide were 50 μmol/L, 100 μmol/L, 200 μmol/L, 400 μmol/L, and 800 μmol/L. The medium containing hydrogen peroxide was removed after incubation for 4 hours, and a normal complete medium (DMEM high-sugar medium containing 1% penicillin/streptomycin and 10% fetal bovine serum) was added for incubation for 24 hours, then the cell activity of the cultured cells was detected by using a CCK-8 cell active kit, the expression of β-galactosidase was detected, and the expressions of the senescent marker p16INK4A and p21Waf1/Cipl were detected by western blot method.
In this example, the oxygen consumption rate (OCR), basal respiration, maximum respiratory value, ATP production capability and respiratory reserve of mitochondria were determined by using the Seahorse xFe96 (Agilent) mitochondria stress detection experiment. 20000 NIH/3T3 cells were inoculated in each well of a 96-well cell culture plate (Nunc, 165306) except the background wells at four corners. After overnight incubation and the cells grew to the wall of the culture plate, the cells were intervened by 200 μmol/L hydrogen peroxide for 4 hours, then the medium containing hydrogen peroxide was removed, and a normal complete medium containing nucleotides with different concentrations (DMEM high-sugar medium containing 1% of penicillin/streptomycin and 10% of fetal bovine serum, and the concentrations of 5′-adenosine monophosphate and 5′-disodium uridine were respectively 100 μmol/L and 200 μmol/L, and the concentration of the nucleotide mixture was 200 μmol/L) was added for incubation for 24 hours. A probe panel (xFe96 FluxPak, Agilent, 102353-100) was hydrated with a hydration solution (XF Calibrant Solution, Agilent, 100840-000) one day in advance, and then was placed in a non-CO2 incubator for incubation for at least 12 hours at 37° C. The experimental culture solution was prepared on the day of the experiment, 1 mL of 2.5 mM glucose (Glucose, Sigma, G7528), 1 mL of 2 mM glutamine (L-glutamine, Sigma, G8540), and 1 mL of 1 mM sodium pyruvate (Sodium pyruvate, Sigma, S8636) were added to 100 mL of base medium (Seahorse XF Basemedium, Agilent, 102353-100), and the pH of the culture solution was adjusted to 7.4±0.05 with 1N of NaOH. The culture solution of the cell culture plate was replaced with the experimental culture solution, 40 μL/well of the original medium was removed from the cell culture plate, then 160 μL/well of the experimental culture solution was added into the cell culture plate for dilution, and then 160 μL of the mixed culture solution was sucked out; the process was repeated for 2-3 times, finally the volume of the experimental culture solution in each well was 175 μL, and the cell culture plate was stood for 1 hour at 37° C.

Nc1ncnc2c1ncn2[C@@H]1O[C@H](COP(=O)(O)O)[C@@H](O)[C@H]1O [AMP, 5′-adenosine monophosphate]
mitochondrial basal respiration (100 μmol/L): returned to normal level | mitochondrial oxygen consumption rate (OCR) (100 μmol/L): returned to normal level | mitochondrial ATP production capability (100 μmol/L): significantly increased | mitochondrial maximum respiratory value (100 μmol/L): significantly increased | mitochondrial respiratory reserve (100 μmol/L): significantly increased

Nc1ccn([C@@H]2O[C@H](COP(=O)(O)O)[C@@H](O)[C@H]2O)c(=O)n1 [CMP, 5′-cytidine monophosphate]
mitochondrial basal respiration (200 μmol/L): increased and significantly lower than that in the nucleotide mixture group; also recorded: little effect | mitochondrial ATP production capability (200 μmol/L): increased (P<0.05) but significantly lower than that in the nucleotide mixture group; also recorded: little effect | mitochondrial maximum respiratory value (200 μmol/L): increased (P<0.05) but significantly lower than that in the nucleotide mixture group; also recorded: little effect

Nc1nc2c(ncn2[C@@H]2O[C@H](COP(=O)([O-])[O-])[C@@H](O)[C@H]2O)c(=O)[nH]1.[Na+].[Na+] [GMP, 5′-disodium guanylate]
mitochondrial ATP production capability (200 μmol/L): increased (P<0.05) but significantly lower than that in the nucleotide mixture group; also recorded: little effect | mitochondrial maximum respiratory value (200 μmol/L): increased (P<0.05) but significantly lower than that in the nucleotide mixture group; also recorded: little effect | mitochondrial respiratory reserve (200 μmol/L): increased (P<0.05) but significantly lower than that in the nucleotide mixture group; also recorded: little effect

O=c1ccn([C@@H]2O[C@H](COP(=O)([O-])[O-])[C@@H](O)[C@H]2O)c(=O)[nH]1.[Na+].[Na+] [UMP, 5′-disodium uridine]
mitochondrial basal respiration (200 μmol/L): significantly higher than that of the model control group; also recorded: returned to normal level | mitochondrial oxygen consumption rate (OCR) (200 μmol/L): returned to normal level | mitochondrial ATP production capability (200 μmol/L): significantly increased | mitochondrial maximum respiratory value (200 μmol/L): significantly increased | mitochondrial respiratory reserve (200 μmol/L): significantly increased
